27 molecules from patent US10266526B2, “Substituted 1,2,3-triazoles as SMYD inhibitors for treating cancer” (EPIZYME, INC., priority 2014, dated 2019) can be followed below.

pIC50: −log10 of the molar value.

In this experiment the target is SMYD2 (Homo sapiens (Human), UniProt Q9NRG4). Description: SMYD2 biochemical assay (SMYD2 enzyme assay on peptide substrate, 3H-SAM Flashplate). To be noted: read-out: SMYD2 Biochem IC50; IC50 values are an average of n = 1 to n = 50.
Chain of SMYD2 (Q9NRG4 whole entry): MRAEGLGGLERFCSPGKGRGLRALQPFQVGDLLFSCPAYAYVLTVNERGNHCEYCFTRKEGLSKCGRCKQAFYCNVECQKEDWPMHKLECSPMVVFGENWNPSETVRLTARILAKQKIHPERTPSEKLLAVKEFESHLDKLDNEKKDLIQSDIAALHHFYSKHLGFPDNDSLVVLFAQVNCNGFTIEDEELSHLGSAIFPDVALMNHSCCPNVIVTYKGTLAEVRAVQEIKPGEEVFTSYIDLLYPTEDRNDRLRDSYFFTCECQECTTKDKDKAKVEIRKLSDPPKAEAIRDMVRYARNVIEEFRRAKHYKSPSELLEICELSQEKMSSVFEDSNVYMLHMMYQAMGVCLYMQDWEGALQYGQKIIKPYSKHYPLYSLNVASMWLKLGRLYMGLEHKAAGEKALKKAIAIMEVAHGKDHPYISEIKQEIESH
`CC[C@@H](c1cccc(Cl)c1)N1CC(NC(=O)c2cc(C3CC3)cnn2)C1` [compound 866, N-{1-[(1S)-1-(3-chlorophenyl)propyl]azetidin-3-yl}-5-cyclopropylpyridazine-3-carboxamide]: the pIC50 was 6.45.
As for `CN1CCC(NC(=O)c2cc(C3CC3)cnn2)CC1` [compound 917, 5-cyclopropyl-N-(1-methylpiperidin-4-yl)pyridazine-3-carboxamide], the pIC50 is below 4.30.
With `COc1c(CN)cccc1CN1CC(NC(=O)c2cn(C3CC3)nn2)C1` [compound 794, N-(1-{[3-(aminomethyl)-2-methoxyphenyl]methyl}azetidin-3-yl)-1-cyclopropyl-1H-1,2,3-triazole-4-carboxamide], the pIC50 was 4.49.
On to `CC(c1cccc(OCC(O)CO)c1Cl)N1CC(NC(=O)c2cn(C3CC3)nn2)C1` (stereo not drawn) [compound 973, N-(1-(1-(2-chloro-3-(2,3-dihydroxypropoxy)phenyl)ethyl)azetidin-3-yl)-1-cyclopropyl-1H-1,2,3-triazole-4-carboxamide], for which the pIC50 is below 4.30.
As for `O=C(NC1CN(Cc2cn(Cc3ccccc3)cn2)C1)c1cn(C2CC2)nn1` [compound 795, N-{1-[(1-benzyl-1H-imidazol-4-yl)methyl]azetidin-3-yl}-1-cyclopropyl-1H-1,2,3-triazole-4-carboxamide], the figure is 5.15.
On to `CC(NC(=O)c1cn(C2CC2)nn1)C1CCCCN1` (stereo not drawn) [compound 1000, 1-cyclopropyl-N-(1-(piperidin-2-yl)ethyl)-1H-1,2,3-triazole-4-carboxamide], for which the negative logarithm of the IC50 (pIC50) is below 4.30.
With `CNCCOc1cccc(CN2CC(NC(=O)c3cn(C4CC4)nn3)C2)c1` [compound 735, 1-cyclopropyl-N-[1-({3-[2-(methylamino)ethoxy]phenyl}methyl)azetidin-3-yl]-1H-1,2,3-triazole-4-carboxamide], the pIC50 was 5.63.
For the molecule `COCCn1cc(CN2CC(NC(=O)c3cn(C4CC4)nn3)C2)cn1` [compound 717, 1-cyclopropyl-N-(1-{[1-(2-methoxyethyl)-1H-pyrazol-4-yl]methyl}azetidin-3-yl)-1H-1,2,3-triazole-4-carboxamide], the pIC50 was 5.51.
For `COc1ccc(C(N2CC(NC(=O)c3cn(C4CC4)nn3)C2)C(F)(F)F)cc1` (stereo not drawn) [compound 749, 1-cyclopropyl-N-{1-[2,2,2-trifluoro-1-(4-methoxyphenyl)ethyl]azetidin-3-yl}-1H-1,2,3-triazole-4-carboxamide], the negative logarithm of the IC50 (pIC50) is 6.25.
For `CC(c1ccc(N2CCOCC2)cc1)N1CC(NC(=O)c2cn(C3CC3)nn2)C1` (stereo not drawn) [compound 728, 1-cyclopropyl-N-(1-{1-[4-(morpholin-4-yl)phenyl]ethyl}azetidin-3-yl)-1H-1,2,3-triazole-4-carboxamide], the negative logarithm of the IC50 (pIC50) was 6.12.
For `C[C@@H](c1ccccc1)N1CC(NC(=O)c2ncc(C3CC3)[nH]2)C1` [compound 914, 5-cyclopropyl-N-{1-[(1S)-1-phenylethyl]azetidin-3-yl}-1H-imidazole-2-carboxamide], the pIC50 was 6.14.
For `COc1ccc(C(C)N2CC(NC(=O)c3cc(C4CC4)cnn3)C2)cc1` (stereo not drawn) [compound 958, 5-cyclopropyl-N-(1-(1-(4-methoxyphenyl)ethyl)azetidin-3-yl)pyridazine-3-carboxamide], the negative logarithm of the IC50 (pIC50) was 6.22.
As for `CC(c1cc(Cl)ccc1Cl)N1CC(NC(=O)c2cc(C3CC3)cnn2)C1` (stereo not drawn) [compound 649, 5-cyclopropyl-N-{1-[1-(2,5-dichlorophenyl)ethyl]azetidin-3-yl}pyridazine-3-carboxamide], the pIC50 is 6.85.
As to `COc1ccnc(C(C)N2CC(NC(=O)c3cn(C4CC4)nn3)C2)c1` (stereo not drawn) [compound 724, 1-cyclopropyl-N-{1-[1-(4-methoxypyridin-2-yl)ethyl]azetidin-3-yl}-1H-1,2,3-triazole-4-carboxamide], the negative logarithm of the IC50 (pIC50) is 5.90.
For the molecule `CC(c1ccc(F)cc1Cl)N1CC(NC(=O)c2cn(C3CC3)nn2)C1` (stereo not drawn) [compound 710, N-{1-[1-(2-chloro-4-fluorophenyl)ethyl]azetidin-3-yl}-1-cyclopropyl-1H-1,2,3-triazole-4-carboxamide], the pIC50 is 6.47.
Take `COc1cccc(C(C)N2CC(NC(=O)c3cc(C4CC4)cnn3)C2)c1OC` (stereo not drawn) [compound 861, 5-cyclopropyl-N-{1-[1-(2,3-dimethoxyphenyl)ethyl]azetidin-3-yl}pyridazine-3-carboxamide]: the pIC50 was 6.92.
Regarding `CC(C)N1CC(NC(=O)c2cn(C3CC3)nn2)C1(C)C` (stereo not drawn) [compound 799, 1-cyclopropyl-N-[2,2-dimethyl-1-(propan-2-yl)azetidin-3-yl]-1H-1,2,3-triazole-4-carboxamide], the pIC50 was 5.02.
Consider `COCCOc1cccc(C(C)N2CC(NC(=O)c3cn(C4CC4)nn3)C2)c1` (stereo not drawn) [compound 702, 1-cyclopropyl-N-(1-{1-[3-(2-methoxyethoxy)phenyl]ethyl}azetidin-3-yl)-1H-1,2,3-triazole-4-carboxamide], for which the pIC50 is 5.45.
The figure for `CC(c1ccc(CNc2ccccc2)cc1)N1CC(NC(=O)c2cn(C3CC3)nn2)C1` (stereo not drawn) [compound 922, 1-cyclopropyl-N-(1-(1-(4-((phenylamino)methyl)phenyl)ethyl)azetidin-3-yl)-1H-1,2,3-triazole-4-carboxamide] is 6.19; for `COc1cnc(C(C)N2CC(NC(=O)c3cn(C4CC4)nn3)C2)nc1` (stereo not drawn) [compound 865, 1-cyclopropyl-N-{1-[1-(5-methoxypyrimidin-2-yl)ethyl]azetidin-3-yl}-1H-1,2,3-triazole-4-carboxamide] it is 5.79; for `CC(c1ccc(C(F)(F)F)cc1)N1CC(NC(=O)c2cn(C3CC3)nn2)C1` (stereo not drawn) [compound 680, 1-cyclopropyl-N-(1-{1-[4-(trifluoromethyl)phenyl]ethyl}azetidin-3-yl)-1H-1,2,3-triazole-4-carboxamide] it is below 4.30.
`CC(c1ccc(NCc2ccccc2)cc1)N1CC(NC(=O)c2cn(C3CC3)nn2)C1` (stereo not drawn) [compound 862, N-(1-{1-[4-(benzylamino)phenyl]ethyl}azetidin-3-yl)-1-cyclopropyl-1H-1,2,3-triazole-4-carboxamide]: the pIC50 is 6.48.
The figure for `O=C(NC1CN(Cc2ccccc2)C1)c1cc(C2CC2)cnn1` [compound 651, N-(1-benzylazetidin-3-yl)-5-cyclopropylpyridazine-3-carboxamide] is 6.27; for `COc1cccc(C(N2CC(NC(=O)c3cn(C4CC4)nn3)C2)C(F)(F)F)c1` (stereo not drawn) [compound 729, 1-cyclopropyl-N-{1-[2,2,2-trifluoro-1-(3-methoxyphenyl)ethyl]azetidin-3-yl}-1H-1,2,3-triazole-4-carboxamide] it is below 4.30.
As for `CC(c1ccc(OCc2ccccc2)cc1)N1CC(NC(=O)c2cn(C3CC3)nn2)C1` (stereo not drawn) [compound 693, N-(1-{1-[4-(benzyloxy)phenyl]ethyl}azetidin-3-yl)-1-cyclopropyl-1H-1,2,3-triazole-4-carboxamide], the figure is 6.76.
Regarding `CCC(c1ccccc1F)N1CC(NC(=O)c2cn(C3CC3)nn2)C1` (stereo not drawn) [compound 798, 1-cyclopropyl-N-{1-[1-(2-fluorophenyl)propyl]azetidin-3-yl}-1H-1,2,3-triazole-4-carboxamide], the negative logarithm of the IC50 (pIC50) is 6.37.
As for `O=C(NC1CN(Cc2cn(CCc3ccccc3)cn2)C1)c1cn(C2CC2)nn1` [compound 782, 1-cyclopropyl-N-(1-{[1-(2-phenylethyl)-1H-imidazol-4-yl]methyl}azetidin-3-yl)-1H-1,2,3-triazole-4-carboxamide], the figure is 5.58.

As a reminder, the pIC50 is the negative decadic logarithm of the IC50, by convention in mol/L.
